Consider 23 compounds from ChEMBL document CHEMBL1806404, “Synthesis, molecular modeling and biological evaluation of β-ketoacyl-acyl carrier protein synthase III (FabH) as novel antibacterial agents” (Bioorg Med Chem, 2011).

For data set [1], the target named is T1, 3-oxoacyl-[acyl-carrier-protein] synthase 3 (Escherichia coli, UniProt C3TDZ2).
T1 sequence (C3TDZ2 whole entry): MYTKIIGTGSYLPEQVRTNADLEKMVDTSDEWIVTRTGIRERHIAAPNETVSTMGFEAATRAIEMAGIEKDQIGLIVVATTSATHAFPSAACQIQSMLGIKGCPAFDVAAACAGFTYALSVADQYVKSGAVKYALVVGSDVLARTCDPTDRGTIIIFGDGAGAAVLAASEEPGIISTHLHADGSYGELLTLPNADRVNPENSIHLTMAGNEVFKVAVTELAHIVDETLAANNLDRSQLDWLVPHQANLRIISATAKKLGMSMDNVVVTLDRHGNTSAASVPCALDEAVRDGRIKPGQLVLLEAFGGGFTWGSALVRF
Nature of the data set: Inhibition of N-terminal His-tagged Escherichia coli FabH expressed in Escherichia coli BL21 (DE3) using [3H]acetyl-coA after 25 mins by liquid scintillation counting.

A short description of data set [2]: Toxicity in erythrocytes assessed as hemolytic activity. The class given is cell-based. The settings on record: erythrocyte.
Another data set concerns Pseudomonas aeruginosa. Nature of the data set: Antibacterial activity against Pseudomonas aeruginosa ATCC13525 after 24 hrs by MTT assay. The class given is functional. The conditions noted are these: ATCC13525, 24 h.
In the next data set the test system is Bacillus subtilis. Nature of the data set: Antibacterial activity against Bacillus subtilis ATCC6633 after 24 hrs by MTT assay. The settings on record: ATCC6633, 24 h. Format: functional.
Another data set relates to Staphylococcus aureus. As to the kind of experiment: Antibacterial activity against Staphylococcus aureus ATCC6538 after 24 hrs by MTT assay. The class given is functional. The conditions noted are these: ATCC6538, 24 h.
For another data set, the system named is Escherichia coli. Nature of the data set: Antibacterial activity against Escherichia coli ATCC35218 after 24 hrs by MTT assay. The conditions noted are these: ATCC35218, 24 h. Format: functional.

SMILES strings stand for the structures. Converted amounts (≈) assume the structure as drawn.

With `Cc1ncc([N+](=O)[O-])n1CC(C)O` (stereo unspecified) [SECNIDAZOLE], in data set [1], the midpoint of inhibition, the IC50, lay at 28.5 µM. In addition, in data set [2], the MHC is more than 10 mg/mL.
Take `Cc1ccc(/C=C/C(=O)OC(C)Cn2c([N+](=O)[O-])cnc2C)cc1` (stereo unspecified): the MIC with Pseudomonas aeruginosa was 50 µg/mL (≈ 152 µM); in the data set with Bacillus subtilis it was more than 100 µg/mL; in the data set on Staphylococcus aureus, more than 100 µg/mL; in the data set with Escherichia coli, 100 µg/mL (≈ 304 µM).
Turning to `Cc1ncc([N+](=O)[O-])n1CC(C)OC(=O)/C=C/c1cccc2ccccc12` (stereo unspecified), the MIC against Pseudomonas aeruginosa is 50 µg/mL (≈ 137 µM); in the data set on Bacillus subtilis, 25 µg/mL (≈ 68.4 µM); against Staphylococcus aureus it was 50 µg/mL (≈ 137 µM); in the data set on Escherichia coli it was 25 µg/mL (≈ 68.4 µM). In addition, in data set [1], 48.9 µM corresponded to half-maximal inhibition (IC50). Also, the MHC in data set [2] is more than 10 mg/mL.
For the compound `NC[C@H]1O[C@H](O[C@H]2[C@H](O)[C@@H](O[C@H]3O[C@H](CO)[C@@H](O)[C@H](N)[C@H]3O)[C@H](N)C[C@@H]2N)[C@H](O)[C@@H](O)[C@@H]1O` [KANAMYCIN], the MIC in the data set with Pseudomonas aeruginosa amounted to 3.13 µg/mL (≈ 6.46 µM); against Bacillus subtilis, 1.56 µg/mL (≈ 3.22 µM); in the data set with Staphylococcus aureus it was 1.56 µg/mL (≈ 3.22 µM); against Escherichia coli, 3.13 µg/mL (≈ 6.46 µM).
Turning to `COc1ccccc1/C=C/C(=O)OC(C)Cn1c([N+](=O)[O-])cnc1C` (stereo unspecified), the MIC against Pseudomonas aeruginosa, in the data set on Bacillus subtilis, against Staphylococcus aureus and in the data set on Escherichia coli was more than 100 µg/mL each time. For the same compound, the inhibitory constant (Ki) in data set [1] was determined as 1.79 pM.
In the case of `Cc1ncc([N+](=O)[O-])n1CC(C)OC(=O)/C=C/c1cccs1` (stereo unspecified), the MIC against Pseudomonas aeruginosa was 50 µg/mL (≈ 156 µM); against Bacillus subtilis it was more than 100 µg/mL; against Staphylococcus aureus it was 50 µg/mL (≈ 156 µM); with Escherichia coli it was 50 µg/mL (≈ 156 µM).
In the case of `Cc1ncc([N+](=O)[O-])n1CC(C)OC(=O)/C=C/c1ccc(N(C)C)cc1` (stereo unspecified), the MIC against Pseudomonas aeruginosa was determined as 6.25 µg/mL (≈ 17.4 µM); against Bacillus subtilis, 12.5 µg/mL (≈ 34.9 µM); in the data set on Staphylococcus aureus, 6.25 µg/mL (≈ 17.4 µM); against Escherichia coli, 6.25 µg/mL (≈ 17.4 µM). In data set [1], it took 19.8 µM to reach half-maximal inhibition (IC50). In addition, the MHC in data set [2] was more than 10 mg/mL.
For `Cc1ncc([N+](=O)[O-])n1CC(C)OC(=O)/C=C/c1ccccc1Cl` (stereo unspecified), the MIC turned out to be 25 µg/mL (≈ 71.5 µM) in the data set with Pseudomonas aeruginosa, 50 µg/mL (≈ 143 µM) against Bacillus subtilis, 50 µg/mL (≈ 143 µM) in the data set on Staphylococcus aureus and 50 µg/mL (≈ 143 µM) against Escherichia coli.
`Cc1ncc([N+](=O)[O-])n1CC(C)OC(=O)/C=C/c1ccc(F)cc1` (stereo unspecified): the MIC stood at 50 µg/mL (≈ 150 µM) in the data set with Pseudomonas aeruginosa, 50 µg/mL (≈ 150 µM) against Bacillus subtilis, 100 µg/mL (≈ 300 µM) against Staphylococcus aureus and 50 µg/mL (≈ 150 µM) with Escherichia coli.
In the case of `Cc1ncc([N+](=O)[O-])n1CC(C)OC(=O)/C=C/c1cccc(Br)c1` (stereo unspecified), the minimum inhibitory concentration (MIC) against Pseudomonas aeruginosa is 12.5 µg/mL (≈ 31.7 µM); with Bacillus subtilis, 25 µg/mL (≈ 63.4 µM); against Staphylococcus aureus it was 12.5 µg/mL (≈ 31.7 µM); in the data set on Escherichia coli, 12.5 µg/mL (≈ 31.7 µM). The IC50 in data set [1] amounted to 27.5 µM. For the same compound, in data set [2], the MHC was more than 10 mg/mL.
With `COc1ccc(/C=C/C(=O)OC(C)Cn2c([N+](=O)[O-])cnc2C)cc1` (stereo unspecified), the minimum inhibitory concentration (MIC) against Pseudomonas aeruginosa is more than 100 µg/mL; in the data set on Bacillus subtilis, 50 µg/mL (≈ 145 µM); with Staphylococcus aureus it was 50 µg/mL (≈ 145 µM); in the data set on Escherichia coli, more than 100 µg/mL.
On to `Cc1ncc([N+](=O)[O-])n1CC(C)OC(=O)/C=C/c1cccc(F)c1` (stereo unspecified), for which the MIC against Pseudomonas aeruginosa was 3.13 µg/mL (≈ 9.39 µM); against Bacillus subtilis, 6.25 µg/mL (≈ 18.8 µM); with Staphylococcus aureus it was 6.25 µg/mL (≈ 18.8 µM); in the data set on Escherichia coli, 3.13 µg/mL (≈ 9.39 µM). In data set [1], half-maximal inhibition (IC50) required 8.2 µM. Moreover, in data set [2], the MHC was more than 10 mg/mL.
As to `Cc1ncc([N+](=O)[O-])n1CC(C)OC(=O)/C=C/c1ccc(OCc2ccccc2)cc1` (stereo unspecified), the minimal inhibitory concentration (MIC) in the data set with Pseudomonas aeruginosa came out at 6.25 µg/mL (≈ 14.8 µM); with Bacillus subtilis, 6.25 µg/mL (≈ 14.8 µM); with Staphylococcus aureus, 3.13 µg/mL (≈ 7.43 µM); against Escherichia coli, 3.13 µg/mL (≈ 7.43 µM). The compound further registered an IC50 in data set [1] of 6.7 µM. In addition, the MHC in data set [2] is more than 10 mg/mL.
Regarding `Cc1ncc([N+](=O)[O-])n1CC(C)OC(=O)/C=C/c1ccccc1` (stereo unspecified), the MIC against Pseudomonas aeruginosa, against Bacillus subtilis, against Staphylococcus aureus and in the data set with Escherichia coli was more than 100 µg/mL in each case. In data set [1], the affinity corresponds to a Ki of 1.32 pM.
Turning to `Cc1ncc([N+](=O)[O-])n1CC(C)OC(=O)/C=C/c1ccc(Br)cc1` (stereo unspecified), the MIC amounted to 6.25 µg/mL (≈ 15.9 µM) in the data set with Pseudomonas aeruginosa, 3.13 µg/mL (≈ 7.94 µM) with Bacillus subtilis, 3.13 µg/mL (≈ 7.94 µM) against Staphylococcus aureus and 6.25 µg/mL (≈ 15.9 µM) against Escherichia coli. In data set [1], 15.6 µM corresponded to half-maximal inhibition (IC50). Also, the MHC in data set [2] was more than 10 mg/mL.
Regarding `Cc1ncc([N+](=O)[O-])n1CC(C)OC(=O)/C=C/c1ccccc1Br` (stereo unspecified), the MIC in the data set on Pseudomonas aeruginosa was 25 µg/mL (≈ 63.4 µM); against Bacillus subtilis, 50 µg/mL (≈ 127 µM); against Staphylococcus aureus, 25 µg/mL (≈ 63.4 µM); against Escherichia coli, 25 µg/mL (≈ 63.4 µM). In data set [1], this compound showed an IC50 of 40.1 µM. Further, the MHC in data set [2] was more than 10 mg/mL.
For the compound `Cc1ncc([N+](=O)[O-])n1CC(C)OC(=O)/C=C/c1ccccc1F` (stereo unspecified), the MIC in the data set with Pseudomonas aeruginosa, in the data set with Bacillus subtilis, with Staphylococcus aureus and with Escherichia coli was more than 100 µg/mL throughout.
For `Cc1ncc([N+](=O)[O-])n1CC(C)OC(=O)/C=C/c1ccc(Cl)cc1Cl` (stereo unspecified), the MIC is 6.25 µg/mL (≈ 16.3 µM) with Pseudomonas aeruginosa, 6.25 µg/mL (≈ 16.3 µM) against Bacillus subtilis, 12.5 µg/mL (≈ 32.5 µM) in the data set on Staphylococcus aureus and 3.13 µg/mL (≈ 8.15 µM) against Escherichia coli. In data set [1], the IC50 came to 9.4 µM. Besides, the MHC in data set [2] was more than 10 mg/mL.
With `Cc1ncc([N+](=O)[O-])n1CC(C)OC(=O)/C=C/c1ccc(-c2ccccc2)cc1` (stereo unspecified), the minimum inhibitory concentration (MIC) amounted to 3.13 µg/mL (≈ 8 µM) in the data set with Pseudomonas aeruginosa, 6.25 µg/mL (≈ 16 µM) against Bacillus subtilis, 1.56 µg/mL (≈ 3.99 µM) with Staphylococcus aureus and 1.56 µg/mL (≈ 3.99 µM) with Escherichia coli. Half-maximal inhibition in data set [1] (IC50) was put at 2.5 µM. Also, in data set [2], the MHC is more than 10 mg/mL.
Regarding `O=C(O)/C=C/c1ccccc1` [CINNAMIC ACID], the IC50 in data set [1] was 43.4 µM. For the same compound, the MHC in data set [2] is more than 10 mg/mL.
`Cc1ncc([N+](=O)[O-])n1CC(C)OC(=O)/C=C/c1ccc2ccccc2c1` (stereo unspecified): the MIC is 50 µg/mL (≈ 137 µM) in the data set on Pseudomonas aeruginosa, 50 µg/mL (≈ 137 µM) against Bacillus subtilis, 100 µg/mL (≈ 274 µM) in the data set on Staphylococcus aureus and 50 µg/mL (≈ 137 µM) in the data set on Escherichia coli.
On to `Cc1ncc([N+](=O)[O-])n1CC(C)OC(=O)/C=C/c1ccc(Cl)cc1` (stereo unspecified), for which the MIC against Pseudomonas aeruginosa worked out at 25 µg/mL (≈ 71.5 µM); against Bacillus subtilis it was 12.5 µg/mL (≈ 35.7 µM); in the data set with Staphylococcus aureus, 25 µg/mL (≈ 71.5 µM); with Escherichia coli, 12.5 µg/mL (≈ 35.7 µM). In data set [1], this compound displayed a 50% inhibitory concentration (IC50) of 34.3 µM. Also, the MHC in data set [2] is more than 10 mg/mL.
Regarding `COc1cccc(/C=C/C(=O)OC(C)Cn2c([N+](=O)[O-])cnc2C)c1` (stereo unspecified), the minimal inhibitory concentration (MIC) with Pseudomonas aeruginosa, against Bacillus subtilis, in the data set on Staphylococcus aureus and against Escherichia coli was more than 100 µg/mL each time. The same compound came in with an inhibitory constant (Ki) in data set [1] of 2.73 pM.
